Columns and labels:
[1] = target: Pyk2 (Homo sapiens, UniProt Q14289); assay: in vitro kinase assay; type: biochemical; conditions: read-out: Pyk2 inhibition 1 μM ^a
[2] = target: FAK (focal adhesion kinase) (Homo sapiens, UniProt Q05397); assay: in vitro kinase assay, Kinase-Glo luminescence; type: biochemical; conditions: read-out: FAK inhibition 1 μM ^a
FAK (focal adhesion kinase), sequence (Q05397 2-1052): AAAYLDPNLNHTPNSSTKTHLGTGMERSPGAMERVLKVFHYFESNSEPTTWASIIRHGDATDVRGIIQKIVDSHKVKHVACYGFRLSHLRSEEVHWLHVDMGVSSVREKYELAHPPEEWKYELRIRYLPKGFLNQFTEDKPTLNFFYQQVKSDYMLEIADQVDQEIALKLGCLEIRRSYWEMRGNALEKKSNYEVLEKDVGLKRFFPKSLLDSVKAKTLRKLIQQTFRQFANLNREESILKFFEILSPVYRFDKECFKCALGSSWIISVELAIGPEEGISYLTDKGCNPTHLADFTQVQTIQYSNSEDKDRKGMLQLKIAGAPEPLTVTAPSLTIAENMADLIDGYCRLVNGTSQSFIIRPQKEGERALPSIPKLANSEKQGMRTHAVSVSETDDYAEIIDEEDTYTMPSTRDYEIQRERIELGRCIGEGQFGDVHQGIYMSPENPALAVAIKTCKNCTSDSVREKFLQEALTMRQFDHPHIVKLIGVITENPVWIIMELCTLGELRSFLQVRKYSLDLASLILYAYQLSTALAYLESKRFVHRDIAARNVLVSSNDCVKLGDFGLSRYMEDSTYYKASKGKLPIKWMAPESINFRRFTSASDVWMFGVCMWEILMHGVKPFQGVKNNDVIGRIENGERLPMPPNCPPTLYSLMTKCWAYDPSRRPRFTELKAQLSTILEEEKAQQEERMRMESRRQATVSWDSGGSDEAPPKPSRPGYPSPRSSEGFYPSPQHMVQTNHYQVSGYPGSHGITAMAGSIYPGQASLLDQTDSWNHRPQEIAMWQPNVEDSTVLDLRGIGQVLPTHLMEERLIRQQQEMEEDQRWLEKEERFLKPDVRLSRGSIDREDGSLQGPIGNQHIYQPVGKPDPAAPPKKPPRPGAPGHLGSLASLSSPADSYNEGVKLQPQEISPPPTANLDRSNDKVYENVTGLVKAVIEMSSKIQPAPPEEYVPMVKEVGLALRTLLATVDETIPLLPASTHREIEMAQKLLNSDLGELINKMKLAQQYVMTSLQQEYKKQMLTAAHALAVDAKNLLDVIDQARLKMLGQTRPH

Pyk2, sequence (Q14289 whole entry): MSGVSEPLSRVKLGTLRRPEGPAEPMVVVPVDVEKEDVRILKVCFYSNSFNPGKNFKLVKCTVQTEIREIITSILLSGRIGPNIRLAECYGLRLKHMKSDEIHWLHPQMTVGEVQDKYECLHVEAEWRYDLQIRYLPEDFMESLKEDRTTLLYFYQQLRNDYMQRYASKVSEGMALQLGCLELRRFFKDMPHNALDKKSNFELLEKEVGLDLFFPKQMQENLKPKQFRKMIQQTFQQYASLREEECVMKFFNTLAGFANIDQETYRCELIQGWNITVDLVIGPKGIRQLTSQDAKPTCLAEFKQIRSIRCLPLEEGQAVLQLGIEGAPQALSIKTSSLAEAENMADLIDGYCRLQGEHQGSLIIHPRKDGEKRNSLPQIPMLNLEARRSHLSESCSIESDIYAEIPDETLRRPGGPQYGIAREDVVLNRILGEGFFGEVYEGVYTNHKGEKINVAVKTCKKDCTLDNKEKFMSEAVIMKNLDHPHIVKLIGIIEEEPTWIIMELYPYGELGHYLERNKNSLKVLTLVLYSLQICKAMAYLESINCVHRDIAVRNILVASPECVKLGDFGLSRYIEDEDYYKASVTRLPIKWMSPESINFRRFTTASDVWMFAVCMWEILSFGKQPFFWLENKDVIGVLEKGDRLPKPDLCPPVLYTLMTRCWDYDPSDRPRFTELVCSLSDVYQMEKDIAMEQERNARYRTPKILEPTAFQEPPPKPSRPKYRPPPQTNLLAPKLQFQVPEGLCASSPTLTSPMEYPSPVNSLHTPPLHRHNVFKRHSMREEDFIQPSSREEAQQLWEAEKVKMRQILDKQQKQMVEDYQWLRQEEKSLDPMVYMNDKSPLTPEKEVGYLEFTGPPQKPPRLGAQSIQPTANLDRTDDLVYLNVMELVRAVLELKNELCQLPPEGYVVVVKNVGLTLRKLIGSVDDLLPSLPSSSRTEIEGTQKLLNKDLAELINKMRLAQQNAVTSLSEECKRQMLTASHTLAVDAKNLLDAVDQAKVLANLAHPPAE

inhibition at 1 µM [1]: 82% | inhibition at 1 µM [2]: 70%
SMILES: c1nc2nc(Nc3ccc(N4CCOCC4)cc3)nc(NC3CCCCC3)c2[nH]1 [reversine]

— article PMC3844920 (British Journal of Cancer, 2013)
